What was measured:
CHO [1] = assay: Agonist activity at human GHSR expressed in CHO cells at maximum concentration incubated for 60 min by FLIPR assay relative to control; assay type: cell-based
[2] = Agonist activity at dog GHSR expressed in CHO cells incubated for 60 min by FLIPR assay; assay type: cell-based; settings: 1 h
[3] = biological target: Growth hormone secretagogue receptor type 1 (Rattus norvegicus, UniProt O08725); assay: Agonist activity at rat GHSR expressed in CHO cells incubated for 60 min by FLIPR assay; assay type: functional, cell-based
[4] = biological target: Growth hormone secretagogue receptor type 1 (Rattus norvegicus) (UniProt O08725); assay: Agonist activity at rat GHSR expressed in CHO cells at maximum concentration incubated for 60 min by FLIPR assay relative to control; assay type: functional, cell-based; settings: filed as agonist
CHO [5] = assay: Agonist activity at monkey GHSR expressed in CHO cells at maximum concentration incubated for 60 min by FLIPR assay relative to control; assay type: cell-based; settings: Macaca mulatta, filed as agonist
[6] = Agonist activity at monkey GHSR expressed in CHO cells incubated for 60 min by FLIPR assay; assay type: cell-based; settings: Macaca mulatta, 1 h
[7] = Agonist activity at human GHSR expressed in CHO cells incubated for 60 min by FLIPR assay; assay type: cell-based; settings: 1 h
CHO [8] = assay: Agonist activity at dog GHSR expressed in CHO cells at maximum concentration incubated for 60 min by FLIPR assay relative to control; assay type: cell-based; settings: Canis lupus familiaris, filed as agonist
[9] = Tmax in male Sprague-Dawley rat at 2 mg/kg, po administered as single dose measured after 4 hrs; assay type: ADME, organism-based; settings: in vivo
[10] = Oral bioavailability in male Sprague-Dawley rat at 2 mg/kg administered as single dose measured after 4 hrs; assay type: ADME, organism-based; settings: in vivo
[11] = Volume of distribution in male Sprague-Dawley rat at 1 mg/kg, iv administered as single dose measured after 4 hrs; assay type: ADME, organism-based; settings: in vivo
[12] = Clearance in male Sprague-Dawley rat plasma at 1 mg/kg, iv administered as single dose measured after 4 hrs; assay type: ADME, organism-based
[13] = AUC in male Sprague-Dawley rat at 2 mg/kg, po administered as single dose measured after 4 hrs; assay type: ADME, organism-based; settings: in vivo
[14] = Cmax in male Sprague-Dawley rat at 2 mg/kg, po administered as single dose measured after 4 hrs; assay type: ADME, organism-based; settings: in vivo
[15] = Elimination half life in male Sprague-Dawley rat at 1 mg/kg, iv administered as single dose measured after 4 hrs; assay type: ADME, organism-based; settings: in vivo, read-out: beta t1/2 (converted)
[16] = Elimination half life in male Sprague-Dawley rat at 2 mg/kg, po administered as single dose measured after 4 hrs; assay type: ADME, organism-based; settings: in vivo, read-out: beta t1/2 (converted)

Sequence of Growth hormone secretagogue receptor type 1 (Rattus norvegicus) (O08725 whole entry): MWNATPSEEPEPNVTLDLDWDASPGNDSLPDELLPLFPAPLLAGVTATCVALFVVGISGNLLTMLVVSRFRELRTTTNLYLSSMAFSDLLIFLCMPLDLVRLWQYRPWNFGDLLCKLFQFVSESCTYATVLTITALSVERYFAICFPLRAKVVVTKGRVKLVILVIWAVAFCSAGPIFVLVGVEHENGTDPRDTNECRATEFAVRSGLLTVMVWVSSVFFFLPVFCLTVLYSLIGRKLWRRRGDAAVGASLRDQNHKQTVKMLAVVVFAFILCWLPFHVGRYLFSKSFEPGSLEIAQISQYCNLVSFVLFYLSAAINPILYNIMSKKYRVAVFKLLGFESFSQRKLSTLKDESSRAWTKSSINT
Sequence of Growth hormone secretagogue receptor type 1 (O08725 whole entry): as above

| EC50 [2] [nM] | EC50 [3] [nM] | Activity [4] [%] | EC50 [6] [nM] | EC50 [7] [nM] | SMILES | Activity (CHO [1]) [%] | Activity (CHO [5]) [%] | Activity (CHO [8]) [%] | Activity (CHO [1]; filed as agonist) [%] | other results |
| --- | --- | --- | --- | --- | --- | --- | --- | --- | --- | --- |
| 0.077 | 0.012 | 96 | 0.062 | 0.58 | CC(C)(N)C(=O)N[C@H](COCc1ccccc1)C(=O)N1CCC2=NN(C(F)(F)F)C(=O)[C@]2(Cc2ccccc2)C1 |  | 103 | 115 | 106 | Tmax [9]: 0.33 h; bioavailability [10]: 44.8%; Vd [11]: 16.1 L/kg; clearance [12]: 70.9 mL/min/kg; AUC at 4 h [13]: 214 ng·h/mL; Cmax [14]: 219 ng/mL; half-life [15]: 2.96 h; half-life [16]: 1.2 h |
|  |  |  |  | 447 | CC(C)(N)C(=O)N[C@H](COCc1ccccc1)C(=O)N1C2CCC1[C@@]1(Cc3ccccc3)C(=O)NN=C1C2 (some centres undefined) |  |  |  | 41.7 |  |
|  |  |  |  | > 1000 | CC(C)(N)C(=O)N[C@H](COCc1ccccc1)C(=O)N1CCC2=NN(C(F)F)C(=O)[C@]2(Cc2ccccc2)C1 | 11 |  |  |  |  |
| 0.048 | 0.014 | 104 | 0.02 | 1.19 | CC(C)(N)C(=O)N[C@H](COCc1ccccc1)C(=O)N1CCC2=NN(C3CCC3)C(=O)[C@]2(Cc2ccccc2)C1 |  | 104 | 125 | 107 | Tmax [9]: 0.5 h; bioavailability [10]: 3.3%; Vd [11]: 3.5 L/kg; clearance [12]: 50.5 mL/min/kg; AUC at 4 h [13]: 21.1 ng·h/mL; Cmax [14]: 8.4 ng/mL; half-life [15]: 0.8 h; half-life [16]: 1.82 h |

The remaining lines, values behind:

| SMILES | EC50 [2] [nM] | EC50 [3] [nM] | Activity [4] [%] | EC50 [6] [nM] | EC50 [7] [nM] | Activity (CHO [1]) [%] | Activity (CHO [5]) [%] | Activity (CHO [8]) [%] | Activity (CHO [1]; filed as agonist) [%] | other results |
| --- | --- | --- | --- | --- | --- | --- | --- | --- | --- | --- |
| CN1N=C2CCN(C(=O)[C@@H](COCc3ccccc3)NC(=O)C3CCNCC3)C[C@@]2(Cc2ccccc2)C1=O | 143 | 39.3 | 106 | 102 | > 1000 | 30.5 | 94.9 | 91.6 |  |  |
| CN1N=C2C(C)(C)CN(C(=O)[C@@H](COCc3ccccc3)NC(=O)C(C)(C)N)C[C@@]2(Cc2ccccc2)C1=O |  |  |  |  | 63.7 |  |  |  | 82.2 |  |
| CC(C)(N)C(=O)N[C@H](COCc1ccccc1)C(=O)N1CCC2=NN(C3COC3)C(=O)[C@]2(Cc2ccccc2)C1 |  |  |  |  | 14.7 |  |  |  | 99.2 |  |
| CN1N=C2C3(CC3)CN(C(=O)[C@@H](COCc3ccccc3)NC(=O)C(C)(C)N)C[C@@]2(Cc2ccccc2)C1=O |  |  |  |  | 29.8 |  |  |  | 82.1 |  |
| CC(C)(N)C(=O)N[C@H](COCc1ccccc1)C(=O)N1CC(C)(C)C2=NNC(=O)[C@]2(Cc2ccccc2)C1 |  |  |  |  | 53.3 | 25.4 |  |  |  |  |
| CC(C)(N)C(=O)N[C@H](COCc1ccccc1)C(=O)N1CCC2=NN(C3CCCCC3)C(=O)[C@]2(Cc2ccccc2)C1 |  |  |  |  | 2.63 |  |  |  | 137 |  |
